Measurements as given in the METLIN SMRT retention time set (Domingo-Almenara et al. 2019).

Assay: gradient 5% acetonitrile 3 min, to 50% in 2 min, to 85% in 15 min, held 3 min, 100 µL/min
Settings: column: Zorbax Extend-C18 2.1 x 50 mm; eluents: water / acetonitrile, 0.1% formic acid
How it was run: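 The system's dead and dwell volumes were 40 μL and 900 μL, with a Zorbax Extend-C18 column (2.1 × 50 mm, 1.8 μm) run at 100 μL/min in water and acetonitrile containing 0.1% formic acid each. Pure standards were analyzed in mixtures of ~100 molecules by HPLC–quadrupole time-of-flight mass spectrometry in positive and negative ionization mode. Retention time was assigned from computationally picked, manually inspected adduct peaks.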

Row | Structure (SMILES) | RP-LC retention time [s]
1 | O=C(NCc1cccc(Cl)c1)C1=C2CCCN2c2ccc(F)cc2S1(=O)=O | 933
2 | Cc1cc(C(=O)N2CC3CN(S(=O)(=O)c4cccc(F)c4)CC(C2)O3)c(C)o1 | 828
3 | COCc1cc(=O)n(CC(=O)Nc2ccc(OC)c(OC)c2)c(N2CCOCC2)n1 | 702
4 | COc1cccc(CNC(=O)CN2CCc3[nH]c4c(C)c(Cl)ccc4c(=O)c3C2)c1 | 636
5 | O=C(c1ccc(Cl)cc1)N1CCCN(c2nnc3ccccn23)CC1 | 650
6 | O=C(Nc1cnc(N2CCCC2)nc1)c1cccc(Cl)c1 | 765
7 | CCc1ccc(N2C(=O)CN(S(C)(=O)=O)CC2(C)C(=O)NCc2ccc(F)cc2)cc1 (stereo not drawn) | 834
8 | O=C(C1CCCO1)N1CCCn2nc(-c3cccs3)cc2C1 (stereo not drawn) | 689
9 | O=C(c1ccccc1)C(c1ccccc1)C1(O)C(=O)Nc2c(Cl)cc(Cl)cc21 (stereo not drawn) | 949
10 | Cc1ccc(C)c(NC(=O)Cc2csc3nc(-c4ccc(C)c(C)c4)cn23)c1 | 896
11 | CC(C)c1noc(-c2ccnc(-n3cnc(C(=O)NCc4ccccc4)c3)c2)n1 | 939
12 | CN(CC(=O)O)S(=O)(=O)c1ccc(Cl)c(-c2nnc(-c3ccccc3)o2)c1 | 819
13 | COc1ccc(-n2c(=O)c(C(=O)NC3CCCCCC3)c(O)c3cccnc32)cc1 | 1380
14 | Cc1ccc(CNC(=O)Cn2ccc3c(SCc4ccc(F)cc4)nccc32)o1 | 735
15 | CN1CC(c2nc(C3CC3)no2)C2(CCN(C(=O)c3ccc4c(c3)OCO4)CC2)C1 (stereo not drawn) | 609
16 | O=C(Nc1cccc(Br)c1)N1CCc2nc(-c3ccccc3)ncc2C1 | 1030
17 | O=C(Nc1ccc(Br)cc1F)c1ccc(N2CCOCC2)nn1 | 899
18 | COC(=O)c1cc(OCC(=O)NC2CCCCC2)c2cc(OC)c(OC)cc2n1 | 725
19 | O=C(NCCc1cnc[nH]1)c1ccc2nc(CCc3ccccc3)oc2c1 | 641
20 | COc1cc(OC)cc(-c2nc(Cn3cnc4ccccc4c3=O)no2)c1 | 871
21 | O=C1[C@H]2CN(Cc3ccccc3Cl)C[C@H]2C(=O)N1Cc1ccc2c(c1)OCO2 | 930
22 | Cc1cc(C)cc(Nc2nc3ccncc3n(Cc3ccccc3)c2=O)c1 | 817

Row | Structure (SMILES) | RP-LC retention time [s]
23 | COc1ccc(Nc2c(-c3ccc(Cl)cc3)nc3cnccn23)cc1OC | 828
24 | O=C(CC1(O)C(=O)Nc2c(Cl)ccc(Cl)c21)c1ccc(Cl)cc1Cl (stereo not drawn) | 879
25 | CCCCNC(=O)CCc1c(C)n(C)c2nc(-c3ccccc3)nn2c1=O | 706
26 | CCOC(=O)Cc1csc(NC(=O)c2csc(Nc3cccc(Cl)c3)n2)n1 | 952
27 | CC(C)CC(=O)N1CC(c2nc(-c3ccccc3)no2)C2(CCOCC2)C1 (stereo not drawn) | 896
28 | CCOC(=O)C1CCCN(c2c(N3CCC(Cc4ccccc4)CC3)c(=O)c2=O)C1 (stereo not drawn) | 986
29 | CCOC(=O)c1c(C)[nH]c(C(=O)N2CCC(CC(=O)NCCN(C)C)CC2)c1C | 569
30 | COc1ccc(NC(=O)N2CCN(Cc3nc4ccccc4o3)CC2)cc1 | 642
31 | COc1ccc(Cl)cc1NC(=O)N1CCN(C2=CC3=NC(C)CN3C=N2)CC1 (stereo not drawn) | 664
32 | CCCCNC(=O)C1CCCN(C(=O)c2[nH]c(C)c(C(=O)OC(C)C)c2C)C1 (stereo not drawn) | 754
33 | CCc1ccc(NS(=O)(=O)c2cc(-c3[nH]ncc3C(=O)N3CCCC3)oc2C)cc1 | 758
34 | CN1c2ccc(F)cc2C(=O)NC12CCN(C(=O)c1ccc(F)cc1)CC2 | 769
35 | CSc1cccc(NC(=O)Cc2csc(SCC(=O)Nc3ccc(C)cc3)n2)c1 | 900
36 | O=C(Nc1cccc(C(F)(F)F)c1)N1CCCC(Cn2cnc3cccnc32)C1 (stereo not drawn) | 751
37 | Cc1sc(NC(=O)COc2ccc(Cl)cc2)nc1-c1ccc2c(c1)N(C)C(=O)CO2 | 1040
38 | Cc1cc(C)nc(-n2nc(C)cc2N)n1 | 577
39 | CCOC(=O)c1c(NCCc2c[nH]c3ccccc23)c2ccc(Cl)cc2[nH]c1=O | 833
40 | Cc1ccsc1C(=O)N1CCC2(CC1)NCc1ccccc1-n1ccnc12 | 588
41 | O=c1c2sccc2n(Cc2nc(-c3ccccc3)no2)c(=O)n1-c1cccc(F)c1 | 959
42 | COc1ccc(N2CCN(c3cc(SCC(=O)NCCCc4ccccc4)ncn3)CC2)cc1 | 1110
43 | COc1ccc(-c2nnc(-c3ccccc3Cl)o2)cc1S(=O)(=O)N(C)C | 895
44 | COc1ccc(-n2c(=O)n(C)c(=O)c3cc(C(=O)Nc4ccccc4)cnc32)cc1 | 862

Row | Structure (SMILES) | RP-LC retention time [s]
45 | CCn1ccc(NC(=O)c2cccc(C)c2)n1 | 743
46 | COc1ccc(NC(=O)Cn2nc(N3CCC(C)CC3)c3ccccc3c2=O)c(OC)c1 | 1130
47 | Cc1oc(C2CCN(C(=O)C3CCN(S(=O)(=O)N4CCOCC4)CC3)CC2)nc1C(=O)N1CCCC1 | 677
48 | O=c1ccc(S(=O)(=O)N2CCCC2)cn1Cc1ccccc1 | 602
49 | CCOC(=O)c1[nH]c(C)c(CCC(=O)N2CCC(C(=O)NCc3ccc(OC)c(OC)c3)CC2)c1C | 700
50 | COc1ccc(-c2nc3sc(C(N)=O)c(C)n3c2NC(C)(C)C)cc1 | 705
51 | O=C(c1ccc(-c2ccc([N+](=O)[O-])cc2Cl)o1)N1CCOCC1 | 778
52 | O=C1Cc2c(-c3ccccc3)cc(-c3cccc(Cl)c3)nc2-c2ccccc2N1 | 1260
53 | Cc1ccc(CN2CCCC(c3nc(C(C)C)no3)CCNC(=O)CC2)s1 (stereo not drawn) | 661
54 | Cc1nc(N2CCN(c3ccccn3)CC2)nc2oc(-c3ccccc3)nc12 | 755
55 | Cc1cccc(CNC2=NCCNC23CCN(S(=O)(=O)c2ccccc2C)CC3)c1 | 752
56 | COc1ccc(NC(=O)Nc2nccn(-c3cccc(F)c3)c2=O)cc1OC | 798
57 | Cc1ccc(CNC(=O)c2ccc3c(c2)nc2n3CCCCC2)o1 | 619
58 | Fc1ccc(Cc2nc3nccc(-c4cc5ccccc5o4)n3n2)cc1 | 1130
59 | O=c1n(Cc2ccccc2)nc2n1CCN(S(=O)(=O)c1ccc3c(c1)OCCO3)CC2 | 818
60 | COc1ccc2[nH]c(=O)c(CCC(=O)NCCc3ccccn3)cc2c1 | 576
61 | O=C(Nc1cccc(-c2ccc(N3CCOCC3)nn2)c1)Nc1ccccc1F | 688
62 | CN(CCc1noc(COc2ccccc2F)n1)C(=O)CCc1ccccc1 | 931
63 | COc1ccc(N2CCN(C(=O)Cn3ccc4ccc(-c5nnc(C)o5)cc43)CC2)cc1 | 753
64 | CC(C)c1nnc(-c2coc(S(=O)(=O)N3CCN(C4CCCCC4)CC3)c2)o1 | 644
65 | CCN1C(=O)C(C)(C(=O)Nc2cc(C)cc(C)c2)Oc2cccnc21 (stereo not drawn) | 982
66 | COc1cccc(CNC2=NCCNC23CCN(S(=O)(=O)c2ccc(C)c(C)c2)CC3)c1 | 775

Row | Structure (SMILES) | RP-LC retention time [s]
67 | COc1ccc(Cl)cc1NC(=O)CSc1nnc2c3cc(-c4ccc(F)cc4)nn3ccn12 | 996
68 | CN(CCc1noc(COc2ccccc2)n1)C(=O)Cc1ccccc1 | 863
69 | CC(C)c1noc(C2(NC(=O)C3CCCC3)CCCCC2)n1 | 968
70 | COCCOCc1nc(C2CCCN2S(=O)(=O)c2cc(F)ccc2F)no1 (stereo not drawn) | 830
71 | CC(=O)Nc1cc(C(=O)NCc2ccc(OC(C)C)cc2)c2ccc(C)nc2c1 | 640
72 | CCCCn1cc(S(=O)(=O)Nc2ccc(F)c(F)c2)c2cccnc21 | 966
73 | CN(C)c1nn(CC(=O)NCc2cccc(C(F)(F)F)c2)cc1-c1ccccc1 | 984
74 | COc1ccc(NC(=O)C2=Cc3cc(Br)ccc3OC2)c(OC)c1 | 1120
75 | COc1cccc(-c2noc(Cn3cnc4c(nnn4-c4ccccc4OC)c3=O)n2)c1 | 914
76 | CCc1ccc(CNC(=O)CC2CCN(C(=O)c3[nH]c(C)cc3C)CC2)cc1 | 857
77 | CCOc1ccc(NS(=O)(=O)c2cc(C(=O)N3CCN(c4ccc(F)cc4)CC3)n[nH]2)cc1 | 876
78 | Cc1nc(-c2ccc3c(c2)CCN3C(=O)C2CCOC2)cs1 (stereo not drawn) | 760
79 | O=C(c1ccc2ccnc(N3CCN(c4ccc(F)cc4)CC3)c2c1)N1CCCCC1 | 792
80 | CC1=C(C(=O)OCCc2ccccc2)C(c2cccs2)NC(=O)N1 (stereo not drawn) | 821
81 | COc1ccc(-c2cc(C(=O)NC3CCCC3)nn2C2CCS(=O)(=O)C2)cc1 (stereo not drawn) | 849
82 | COc1ccc(Cl)cc1NC(=O)C1CCN(C(=O)c2cccn2-c2cccnc2)CC1 | 784
83 | CCC(=O)Nc1ccc(C2(C(=O)N3CCCCCC3)CCC2)cc1 | 801
84 | Cc1cccc(-c2ncccc2CNS(=O)(=O)c2ccc(F)cc2)c1 | 724
85 | Cc1cc(F)ccc1NC(=O)c1cn2c(n1)CSCC2 | 728
86 | O=C(Cn1ccn2nc(-c3ccc(F)cc3)c(CO)c2c1=O)Nc1ccc(F)cc1F | 821
87 | CC(=O)Nc1cc(C(=O)NCc2nn(Cc3ccccc3)c3ccccc23)ccc1C | 794
88 | Cn1cc(C(=O)Nc2ccc3c(c2)OCO3)c2cccnc21 | 730
